# Values joined by “and” are separate entries in the source; they are usually repeats but may differ in a detail not shown here. Identical values can stand only once.
# Legend:
# [1] = test system: serum uric acid (sUA) levels; assay: Study A3006GT: phase 2 crossover, sUA in healthy subjects with screening sUA of at least 7.1 mg/dL; tranilast, febuxostat, combination; assay type: in vivo, human
# Experimental: Study A3006GT was a phase 2, randomized, double-blind, 3-period, 3-treatment crossover trial. The primary objective was to compare the effects of three treatments on serum uric acid (sUA) levels in healthy subjects with a screening sUA level of at least 7.1 mg/dL. The three treatments were: 300 mg QD tranilast and 40 mg QD febuxostat (C); 300 mg QD tranilast alone (T); 40 mg QD febuxostat alone (F).
# The study was conducted in 23 subjects. […] With two exceptions, every subject provided data for all three treatments. Subject 1001 completed only the first two periods of the study (C and F). […] Therefore, the period 3 data for subject 1024 are excluded from the analyses presented here.
# Two endpoints were considered: change from baseline to day 7 in sUA; and percent change from baseline to day 7 in sUA. For each endpoint, an analysis of variance (ANOVA) model for a three-period crossover trial was used. The model included effects for sequence, subject within sequence, treatment, and period. The sequence effect was tested using the subject within sequence mean square as the error term. Two pairwise comparisons between treatments were tested: C−F and C−T. In addition, the two-sided 95% confidence interval for each of these differences was computed.
# For each subject for which results were available from all three treatments, the difference between the change for C and the sum of the changes for F and T was computed. Although the true magnitude of the difference between these two values is not known, a conservative null hypothesis is that this difference should be equally likely to be greater than or less than zero. The sign test and the Wilcoxon signed rank test were used to test this null hypothesis.
# Using the change for each subject as the dependent variable, an analysis of variance (ANOVA) model for a three-period crossover trial was fit. This model included effects for sequence, subject within sequence, treatment, and period. Using the least squares estimates of the mean changes for each treatment, along with the 3×3 covariance matrix of these three estimates, the mean and SD of the difference between C and F+T was estimated, as follows.
# [2] = test system: monosodium urate (MSU) crystal-induced air pouch inflammation; assay: Air Pouch Model 2: MSU crystal air pouch, rodent model of gout; assay type: in vivo, male Sprague-Dawley rats; details: for Average Exudate Volume, Mean / Average Plasma Extravasation, OD620 nm, Mean / Total WBC in Sample, Mean / WBC in exudate, Mean: 4 h after MSU
# Experimental: The objective of this study was to evaluate the anti-inflammatory potency of Tranilast. This evaluation was carried out in male Sprague-Dawley rats in a rodent model of gout. The animals were injected subcutaneously with 20 ml of sterile air, followed three days later by a supplemental injection with 20 ml of sterile air. Six days after the initial sterile air injection, the rats were injected intravenously with Evan's Blue and pretreated for thirty minutes with oral administration of 25 mg/kg, 50 mg/kg, 100 mg/kg or 200 mg/kg tranilast. After the pretreatment period, the rats were injected with 150 mg of monosodium urate (MSU) crystals (10 mg/ml) into the air pouch. Four hours later, the air pouch was injected with 5 ml heparinized saline and the entire contents of the air pouch removed, recording the total volume. The air pouch contents were evaluated for plasma extravasation and total white blood cell (WBC) count.
# (§1) On day 0 the rats were anesthetized in a biological cabinet, the nape of the neck was cleansed with 70% isopropanol followed by iodine tincture (VEDCO, lot L021976). Twenty ml sterile (0.22 μm, Millipore, Cat. SLGSV255F, lot R8J1494130, exp July 2011) air was injected subcutaneously using a 23 G×2 inch needle fixed to a 20 ml syringe. The rats were returned to routine housing. No adverse reactions were observed.
# as §1, with “day 3” for “day 0”, “μm, Fisher Scientific,” for “μm, Millipore,”, “Cat. 09-720-3,” for “Cat. SLGSV255F,”, “lot R5SN25683)” for “lot R8J1494130, exp July 2011)”
# On day 6 the rats were weighed (Mettler, Model PE3000, SN: F69474) and injected intravenously injected with 2 ml/kg Evans Blue. The animals were dosed orally with 0.5 ml/kg, 1 ml/kg, 2; ml/kg or 4 ml/kg tranilast, or 4 ml/kg vehicle.
# Thirty minutes after test material administration, the rats were anesthetized and five groups (2-6) were injected into the air pouch with 15 ml MSU using a 19 G×2 inch needle fitted to a 20 ml syringe. Group 1 was injected with 15 ml saline. The rats were returned to their cages, no adverse affects were observed.
# Four hours after MSU/saline injection, the rats were anesthetized and 5 ml 10 U/ml heparinized saline was injected into the air pouch. The air pouch was gently massaged, the contents immediately removed using a 14 G×1 inch needle fitted to a 6 ml syringe, and the exudate volume recorded. An aliquot of the exudate was transferred to heparin-treated microtainer tubes (Becton Dickinson, Cat. 365958, lot 9140110, expo July 2010) for white blood cell (WBC) counting. The remainder of the exudate was centrifuged (Hermle Labrotechnik, Model Z200A, SN: 44060036), the supernatants removed and evaluated at OD620nm (Spectronic Unicam, Model 4000 1/4, SN: 3SGD003006) for plasma extravasation.
# [3] = end of 1-week treatment (day 7), C: 300 mg QD tranilast + 40 mg QD febuxostat, T: 300 mg QD, F: 40 mg QD
# [4] = individual subjects, per study period, end of the 1-week treatment period
# [5] = 25 mg/kg oral, 30 min before MSU
# [6] = 50 mg/kg oral, 30 min before MSU
# [7] = 100 mg/kg oral, 30 min before MSU
# [8] = 200 mg/kg oral, 30 min before MSU
# [9] = highest dose 200 mg/kg oral, 30 min before MSU
# [10] = oral, sigmoidal dose-response (variable slope) analysis
compound,measurement,setting,value
"COc1ccc(/C=C/C(=O)Nc2ccccc2C(=O)O)cc1OC [Tranilast, 2-[[3-(3,4-dimethoxyphenyl)-1-oxo-2-propenyl]amino]benzoic acid]","sUA Change from Baseline, Max",[1]; [3],-0.90 mg/dL
same,"sUA Change from Baseline, Mean",[1]; [3],-1.60 mg/dL
same,"sUA Change from Baseline, Median",[1]; [3],-1.40 mg/dL
same,"sUA Change from Baseline, Min",[1]; [3],-3.50 mg/dL
same,"sUA Percent Change from Baseline, Max",[1]; [3],−9.47%
same,"sUA Percent Change from Baseline, Mean",[1]; [3],−21.20%
same,"sUA Percent Change from Baseline, Median",[1]; [3],−18.61%
same,"sUA Percent Change from Baseline, Min",[1]; [3],−47.95%
same,sUA Change from baseline,[1]; [4],−1.4 mg/dL (2×) and −1.1 mg/dL (3×) and −2.1 mg/dL and −2.2 mg/dL (2×) and −1.7 mg/dL (3×) and −1.9 mg/dL and −0.9 mg/dL (2×) and −1.2 mg/dL (3×) and −1.0 mg/dL (2×) and −3.2 mg/dL and −3.5 mg/dL and −1.6 mg/dL
same,sUA Percent Change from baseline,[1]; [4],−17.50% and −14.86% and −30.43% and −27.85% and −16.42% and −26.98% and −22.09% and −13.64% and −9.47% and −26.15% and −16.00% and −14.29% (2×) and −10.87% and −30.14% and −14.46% and −35.56% and −47.95% and −20.51% and −19.72% and −15.38% and −21.79%
same,"Average Exudate Volume, Mean",[2]; [5],6.5 mL
same,"Average Plasma Extravasation, OD620 nm, Mean",[2]; [5],1.431
same,"Total WBC in Sample, Mean",[2]; [5],20550000
same,"WBC in exudate, Mean",[2]; [5],3196000 cells/ml
same,"Average Exudate Volume, Mean",[2]; [6],8.6 mL
same,"Average Plasma Extravasation, OD620 nm, Mean",[2]; [6],1.048
same,"Total WBC in Sample, Mean",[2]; [6],12476000
same,"WBC in exudate, Mean",[2]; [6],1557000 cells/ml
same,"Average Exudate Volume, Mean",[2]; [7],8.0 mL
same,"Average Plasma Extravasation, OD620 nm, Mean",[2]; [7],0.939
same,"Total WBC in Sample, Mean",[2]; [7],10629600
same,"WBC in exudate, Mean",[2]; [7],1566000 cells/ml
same,"Average Exudate Volume, Mean",[2]; [8],3.2 mL
same,"Average Plasma Extravasation, OD620 nm, Mean",[2]; [8],0.819
same,"Total WBC in Sample, Mean",[2]; [8],10305200
same,"WBC in exudate, Mean",[2]; [8],3516000 cells/ml
same,inhibition of plasma extravasation,[2]; [9],42%
same,inhibition of white blood cell infiltration,[2]; [9],80%
same,"effect on MSU-induced parameters (plasma extravasation, leukocyte infiltration)","[2]; oral 25-200 mg/kg, 30 min before MSU",dose-dependent inhibition
same,IC50 effect on plasma extravasation,[2]; [10],45 mg/kg
same,IC50 effect on white blood cell infiltration,[2]; [10],16 mg/kg
